Data reported in PMC8838787, “The Antiproliferative and Apoptotic Effects of a Novel Quinazoline Carrying Substituted-Sulfonamides: In Vitro and Molecular Docking Study” (Molecules, 2022).

Key:
[1] = system: HUVEC normal cells; experiment: MTT cell viability assay, normal HUVEC; assay type: cell-based; conditions: Homo sapiens, 48 h, average ± SD (n = 3)
Method: Compounds 4a–n were subjected to the cytotoxicity screening of the cell lines MCF-7 (breast), LoVo (colon), HepG2 (liver) and A549 (lung) carcinoma cells as well as HUVEC normal cell lines. The MTT assay was employed to assess cytotoxicity after 48 h of treatment with different concentrations of each compound and doxorubicin was used as a reference drug. The results were presented in Table 1 as growth inhibitory concentration (IC50 values).
Cell viability was determined using 3-(4,5-dimethylthiazol-2-yl)-2,5-diphenyl tetrazolium bromide (MTT) assay as stated previously. In brief, A549 (lung), HepG2 (liver), LoVo (colon), MCF-7 (breast) cancer cells as well as normal cells (HUVEC) were seeded in 96-well plates (10^5 per well) and compounds were added in a different final concentration. All cells were treated for 48 h, and then 10μL of MTT reagent (5 mg/mL) was added to each well and further incubated for 4 h. Thereafter, 0.1 mL of acidified isopropanol was added to solubilize formazan product and the developed color was measured at 570 nm in Microplate ELISA Reader (BioTek, Elx-800, Winooski, VT, USA). The IC50 values (concentration required for 50% inhibition of cell viability) were calculated using dose response curve. Cell viability was calculated as = (Ab Treated/Ab Control) × 100.
The A549, HepG2, LoVo and MCF-7 cancer cell lines were obtained from the German Collection of Microorganisms and Cell Cultures (DSMZ) (Braunschweig, Germany). For Human umbilical vein endothelial cells (HUVEC cells), it was purchased from American Type Culture Collection (16549; Cat no. PCS-100-010; ATTCC, Manassas, VA, USA).

[2] = system: caspase 7; experiment: RT-PCR of apoptotic genes, caspase 7; assay type: cell-based, human; conditions: 24 h, relative to untreated cells
Text: (§1) We next used reverse transcription polymerase chain reaction (RT-PCR) and Western blot analysis to look at Bax (proapoptotic), Bcl-2 (antiapoptotic) and caspase 7 (executioner caspase) expression at gene and protein level as an additional marker of apoptosis occurrence. In fact, apoptotic cell death is mostly directed by the levels of Bcl-2 family, whether they are pro-apoptotic or antiapoptotic and targeting these molecules as a therapeutic strategy is continuously under development. As predicted, we observed an upregulation in the expression of Bax in MCF-7 treated cells to (1.7-, 2- and 2.4-fold) with compound 4d and to (1.2-, 1.4- and 1.6-fold) with compound 4f at (1.25, 2.5 and 5 µM) respectively (Figure 6). […] This shifting in Bax to Bcl-2 ratio usually started caspases activation which plays a critical role in apoptosis execution. Among all caspases, caspase 7 is considered as one of the most crucial executioner caspases that mediate cell death, and its expression strongly correlates with apoptosis stimulation.
(§2) The MCF-7 cells (0.1 × 10^6) in 12 well plates were treated with different concentrations of compounds 4d and 4f for 24 h and untreated cells were used as a control. After 24 h of treatment, cell culture media was removed and the cells were lysed with Trizol (Invitrogen, Waltham, MA, USA), and total RNA was extracted from all the samples [42]. The RNA was estimated by Nano-drop and 1 µg of RNA was used in the cDNA synthesis. The cDNA was synthesized from RNA by using a cDNA synthesis kit (Invitrogen, Thermo Fisher Scientific, lnc., Waltham, MA, USA) according to the manufacturer’s instruction. After Reverse transcription at 42 °C for 60 min, RT-PCR was performed using 5× Firepol Master Mix ready to load (Solis BioDyne) according to manufacturer’s instruction. RT-PCR was used to analyze the gene expression level of P53, Bcl2, Bax and caspase 7 using specific sets of primers for each gene, while β-actin was utilized as a housekeeping gene. The program was run as follows, initial denaturation at 95 °C for 5 min; denaturation at 95 °C for 30 s; annealing at 55 °C for 45 s; elongation at 72 °C for 45 s (30 Cycles) and final extension at 72 °C for 10 min. The RT-PCR products were electrophoresed on a 1.2% agarose gel containing ethidium bromide and the gel was imaged on a Licor machine.

[3] = system: MCF-7 cells; experiment: Cell cycle analysis by PI staining and flow cytometry; assay type: cell-based, human; conditions: 24 h, mean ± SD, control 57.91 ± 0.61%
Method: Indeed, designing of new chemotherapeutic drugs targeting cell cycle progression and apoptosis is considered as an attractive strategy. To explore the antiproliferative effect of compounds 4d and 4f, cell-cycle analysis was performed in MCF-7 cells were examined. The cells were treated with various concentrations of both compound for 24 h, stained with propidium iodide (PI) and analyzed by flow cytometry. As shown in (Figure 2), the incubation of MCF-7 cells with (1.25, 2.5, and 5 μM) of compound 4d for 24 h increased the percentage of cells at G1 (from 57.91 ± 0.61% in control) to 62.51 ± 0.14%, 64.95 ± 0.21% and 66.55 ± 0.78% in treated cells, respectively.
Cell cycle distribution was evaluated by PI staining as previously described. Briefly, MCF-7 cells were seeded and incubated for a period of 24 h to allow for attachment. Subsequently, cells were exposed to different concentrations of compounds 4d and 4f. After 24 h, cells were harvested and fixed in 70% ethanol. Thereafter, cells were washed with PBS, resuspended in 1 mL of PBS containing PI (50 μg/mL), RNase A (0.5 mg/mL), sodium citrate (0.1%) and Triton X-100 (0.1%), then incubated for 15 min in the dark at room temperature. Flow cytometry was carried out by a FACS Scan Flow Cytometer (Cytomics FC 500; Beckman Coulter, Brea, CA, USA). The data were analyzed using CXP software V. 3.0.

[4] = system: Bcl-2; experiment: RT-PCR of apoptotic genes, Bcl-2; assay type: cell-based, human; conditions: 24 h, vs DMSO-vehicle treated cells
Text: as §1, §2

Compound	IC50 [1] [µM]	expression of caspase 7 (RT-PCR) ([2]; MCF-7, 2.5 µM) [fold]	expression of caspase 7 (RT-PCR) ([2]; MCF-7, 5 µM) [fold]	percentage of cells at G1 ([3]; 1.25 μM) [%]	percentage of cells at G1 ([3]; 2.5 μM) [%]	percentage of cells at G1 ([3]; 5 μM) [%]	Bcl-2 expression (RT-PCR) ([4]; MCF-7, 1.25 µM) [fold]	Bcl-2 expression (RT-PCR) ([4]; MCF-7, 2.5 µM) [fold]	Bcl-2 expression (RT-PCR) ([4]; MCF-7, 5 µM) [fold]
COc1cccc2c(=O)n(-c3ccc(S(=O)(=O)NCC(=O)Nc4ccc(C)cc4)cc3)c(SCC(=O)Nc3ccc(C)cc3)nc12 [Compound 4d]	7.8 ± 0.6	1.35	1.58	62.51 ± 0.14	64.95 ± 0.21	66.55 ± 0.78	0.88	0.68	0.49
CCc1cccc(NC(=O)CNS(=O)(=O)c2ccc(-n3c(SCC(=O)Nc4cccc(CC)c4)nc4c(OC)cccc4c3=O)cc2)c1 [Compound 4f, N-(3-ethylphenyl)-2-((3-(4-(N-(2-((3-ethylphenyl)amino)-2-oxoethyl)sulfamoyl)-phe-nyl)-8-methoxy-4-oxo-3,4-dihydroquinazolin-2yl)thio)acetamide]	17.9 ± 0.6	1.35	1.58	61.65 ± 0.21	62.65 ± 0.35	65.15 ± 0.36	0.92	0.68	0.62
